This passage reports EC50 results from PubChem BioAssay AID1259427 (Fisher Drug Discovery Resource Center, 2018).

Where “and” joins values, the source holds several entries; their conditions need not be identical. Equal values may be shown once. Calls of active or inactive are those of the source.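 How the source made its calls: active means EC50 at or below a set limit, with no effect in the paired counter-screen assay; inactive means the rest.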 Bounds are passed on as bounds.

Usually EC50 stands for the concentration needed to bring the measured effect to its halfway point.

The experiment concerns the target Aedes aegypti neuropeptide Y-like receptor 7 (NPYLR7). As to the kind of experiment: NPYLR7 activation potency in cells – cell-based, Aedes aegypti, hit validation, mosquito biting behavior, confirmation (AID 1259427).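 Further: potency of agonists that activate the receptor and raise the calcium signal.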 The settings on record: HEK293T NPYLR7/Galpha15/GCaMP6s, calcium fluorescence.
As to `Cc1nc2ncccc2cc1C(=O)N1CCC2(CCNC(=O)CC2)CC1`, the EC50 is > 20 µM (inactive).

Turning to `COc1ccc(OC)c(CCNc2nc3cnc(-c4ccc5c(c4)OCO5)cc3n2C)c1`, the 50% effective concentration (EC50) is 8.34 µM.

Regarding `CSc1nc(N)c2ncn([C@@H]3O[C@H](COP(=O)(O)OP(=O)(O)OP(=O)(O)O)[C@H](O)C3O)c2n1` (some centres undefined), the EC50 entry was “inactive”. In the case of `O=[N+]([O-])c1ccc(-n2nc3ccc4nonc4c3n2)cc1` it was > 20 µM (inactive); in that of `FC(F)(F)c1cc(-c2cccs2)nc2ncnn12`, > 20 µM (inactive). In the case of `COCCn1c(C)cn2c3c(=O)n(Cc4ccc(Cl)cc4)c(=O)n(C)c3nc12` it was > 20 µM (inactive); in that of `O=[N+]([O-])c1c[n+]([O-])n(-c2cccc(Cl)c2)n1`, > 20 µM (inactive). In the case of `Cc1csc(-c2cc3ccc(O)c(CN4CCN(CCO)CC4)c3oc2=O)n1` it was < 0.039 µM (inactive). On to `CC(C)OC(=O)C(C(=O)C(F)(F)F)c1cc(NS(=O)(=O)c2ccc(Cl)cc2)ccc1O` (centres undefined), for which the EC50 is > 20 µM (inactive).

On to `CCOc1ccc(/C=C2N=C(/C=C/c3ccccc3)OC/2=O)cc1`, for which the EC50 was > 20 µM (inactive). For `CC(C)NC[C@H](O)c1ccc(O)c(O)c1`, the EC50 was < 39 nM (inactive) and > 20 µM (inactive). Consider `CN=c1nc(-c2ccccc2)n(-c2ccccc2)s1`, for which the EC50 was 19.9 µM. In the case of `NC(=O)CN1c2cccc3cccc(c23)S1(=O)=O` it was > 20 µM (inactive). Turning to `CCn1c(O)c(C=Nc2c(C#N)c(C)c(C)n2C2CCCCC2)c(=O)n(CC)c1=S`, the EC50 entry is “inactive”. Then `C#CCN1C(=O)SC(=Cc2ccc(N3CCCCC3)o2)C1=O`, with “inactive”; and `N#CC(C#N)=C1C=C2C=C(N3CCN(Cc4ccccc4)CC3)CCC2CC1` (centres undefined), with > 20 µM (inactive); and `COc1cc(OC)c(OC)cc1/C=C1/SC(=S)N(CC(=O)O)C1=O`, with “inactive”. Regarding `CCOc1cc(C=O)c(O)c(C=O)c1`, the EC50 entry is “inactive”. In the case of `O=C1/C(=C/c2cccc(F)c2)Oc2c1ccc(O)c2CN1CCN(CCO)CC1`, the EC50 is > 20 µM (inactive). For the compound `CN(Cc1cnc2ccccc2n1)C(=O)C1CC2(CCNCC2)CN1` (centres undefined), the EC50 was > 20 µM (inactive).

With `O=c1cc(C(F)(F)F)c2ccc(O)cc2o1`, the EC50 result is “inactive”. In the case of `COCCOc1ccc(NC(=O)N(C)C(C)C2(C)CC2)cn1` (centres undefined) it was > 20 µM (inactive).

For the compound `O=C1/C(=C/c2cc3ccccc3o2)Oc2cc(O)ccc21`, the EC50 is > 20 µM (inactive). Then `O=c1[nH]c(CCl)nc2sc3c(c12)CCN(Cc1ccccc1)C3`, with > 20 µM (inactive); and `CCOc1cc(/C=C2/Oc3cc(O)ccc3C2=O)cc(Cl)c1OCC(=O)N(C)C`, with 16.6 µM.

Turning to `COc1ccc(S(=O)(=O)NCC2CCCN(C(=O)CSc3ccccc3)C2)cc1` (centres undefined), the concentration giving a half-maximal response (EC50) is 11.3 µM. Then `COc1cc(C=C(C#N)S(=O)(=O)c2cc(Br)ccc2Br)ccc1O`, with > 20 µM (inactive). Turning to `CN1C(=S)N(C2CCCCC2)C(=O)/C1=C\c1ccc2c(c1)OCO2`, the EC50 was > 20 µM (inactive). Then `Cc1ccc(CN(Cc2ccc(F)cc2)C(=O)CNCCN2CCOCC2)s1`, with > 20 µM (inactive); and `CCN(CC)c1ccc(/C=C2\SC(=S)N(CCS(=O)(=O)O)C2=O)cc1`, with “inactive”. In the case of `CCCCN(C)C1=CC2=CC(=C(C#N)C#N)CCC2CC1` (centres undefined) it was < 0.039 µM (inactive). In the case of `O=C(C1=NN(c2ccccc2)C2C(=O)N(c3ccccc3)C(=O)C12)c1ccccc1` (centres undefined) it was > 20 µM (inactive); in that of `CCN(CC)c1ccc(/C=C2\SC(=S)N(CC(=O)O)C2=O)c(O)c1`, “inactive”. Regarding `CC(=O)Nc1nc(COC(=O)c2[nH]c(C)c(C(=O)OC(C)C)c2C)cs1`, the EC50 was > 20 µM (inactive). In the case of `CCN(CC)CC[n+]1c(C)cc(C=C2Sc3ccccc3N2C)cc1C` it was > 20 µM (inactive). In the case of `Cc1cccc(Oc2nc3ccccn3c(=O)c2/C=C(\C#N)c2nc3ccccc3s2)c1` it was > 20 µM (inactive). In the case of `CC[C@@]1(O)C(=O)OCc2c1cc1n(c2=O)Cc2cc3c(CN(C)C)c(O)ccc3nc2-1` it was “inactive”; in that of `CC(=O)Oc1ccc(Cn2c(C)c(C(=O)NCc3ccc(C#N)cc3)sc2=O)cc1`, > 20 µM (inactive).

For `O=C(Cc1ccc2c(c1)CCC2)NCC1CCN(c2ccccc2)C1` (centres undefined), the EC50 is > 20 µM (inactive). `CC(=O)NCCc1ccc(O)c(O)c1`: the EC50 result was “inactive”. Then `COc1cc(NC(=O)N2CC(=O)N3CCc4c(F)cccc4C3C2)cc(OC)c1OC` (centres undefined), with > 20 µM (inactive); and `O=C1CSC(=S)N1N=Cc1cc(Br)c(O)c(Br)c1`, with “inactive”. Consider `COc1ccc(CN2CCN(Cc3cccn3-c3ncccn3)CC2CCO)c(C)c1C` (centres undefined), for which the EC50 was > 20 µM (inactive). Then `CCC1CN(C(=O)c2cc(C(C)C)on2)CCC(=O)N1Cc1ccccc1` (centres undefined), with > 20 µM (inactive). Take `Cc1cc(O)c(CN2CCCC2)c2c1C(=O)/C(=C/c1cc3ccccc3o1)O2`: the EC50 was > 20 µM (inactive). In the case of `Cc1ccc(CN(C(=O)c2cc3cc(Cl)ccc3[nH]2)C(C)C)o1` it was > 20 µM (inactive). Take `Clc1ccc(-c2noc3c2CN(CCn2cc(Cl)cn2)CC3)cc1`: the EC50 is > 20 µM (inactive). Then `N#CC(C#N)=C1C=C2C=C(N3CCc4ccccc4C3)CCC2CC1` (centres undefined), with > 20 µM (inactive); and `COc1ccc2nc(C=Cc3cc(Br)c(O)c(OC)c3)sc2c1`, with > 20 µM (inactive); and `CCOc1cc(/C=C2\C(=N)N3N=CSC3=NC2=O)cc(Br)c1OC(=O)c1ccccc1`, with “inactive”. In the case of `O=C(NCCSc1ccc(Cl)cc1)c1ccc2c(=O)n3c(nc2c1)CCC3` it was > 20 µM (inactive); in that of `CC(C)COCC(O)CN(Cc1cccn1C)CC1CCCO1` (centres undefined), > 20 µM (inactive). With `Cc1nn(C)c(Cl)c1/C=C1/CCCc2c1nc1ccccc1c2C(=O)O`, the concentration giving a half-maximal response (EC50) is 19.2 µM. In the case of `CCC(CO)[n+]1c(C)cc(C=C2Sc3ccccc3N2Cc2ccccc2)cc1C` (centres undefined) it was 9.8 µM; in that of `C[C@H](O)C(=O)C1=Nc2c(nc(N)[nH]c2=O)NC1`, > 20 µM (inactive); in that of `O=C1c2ccccc2-c2nn(CN3CCN(c4ccccc4)CC3)c3cccc1c23`, > 20 µM (inactive). In the case of `COc1ccc(C(=O)N(Cc2ccccc2)C2CCC(NC(=O)C3CCN(C(=O)c4ccccc4Cl)CC3)CC2)cc1` (centres undefined), the EC50 was 18 µM.

On to `CNC[C@@H](O)c1ccc(O)c(O)c1`, for which the EC50 was > 20 µM (inactive). On to `COc1ccc2c(C)nc(N=C(N)N)nc2c1`, for which the 50% effective concentration (EC50) was 19.6 µM. Then `COc1cc(C=C2N=C(c3ccc4c(c3)OCO4)OC2=O)cc2c1OCCO2`, with > 20 µM (inactive). Then `CCN1CCc2c(sc(NC(=O)c3ccccc3)c2-c2nc3ccccc3s2)C1`, with > 20 µM (inactive); and `CN(Cc1ccccc1)c1cc(Oc2cccc(Cl)c2)ncn1`, with > 20 µM (inactive). In the case of `CCN1CCN(Cc2c(O)cc(C)c3c2O/C(=C\c2ccco2)C3=O)CC1` it was > 20 µM (inactive); in that of `CCCc1[nH]n(-c2ccc(Cl)cc2)c(=O)c1/C=C1\NC(=O)N(Cc2ccc(C)cc2)C1=O`, > 20 µM (inactive); in that of `COc1cc(C=C(C#N)C(=O)OC(C)C)cc(Cl)c1O`, > 20 µM (inactive).

On to `Cc1ccc(C2=NN(C(=O)CN3CCN(C)CC3)C(c3ccccc3Cl)C2)cc1` (centres undefined), for which the EC50 is > 20 µM (inactive). As to `COc1ccc(Cl)cc1Nc1nnc(-c2cc3c(ccc4ccccc43)oc2=O)s1`, the EC50 was > 20 µM (inactive). Then `Nc1ccc2c3c(cccc13)C(=O)N(c1ccccc1)C2=O`, with “inactive”; and `CN(Cc1ccccc1)C1=CC2=CC(=C(C#N)C#N)CCC2CC1` (centres undefined), with 5.13 µM. Then `N#CC(C#N)=C1C=C2C=C(N3CCCCCC3)CCC2CC1` (centres undefined), with < 0.039 µM (inactive). Then `COc1cc(C=C2C=c3c(O)cccc3=C2O)cc(Cl)c1O`, with “inactive”; and `Nc1ccc2c3c(cccc13)C(=O)NC2=O`, with “inactive”. For `CC(C)N=c1c([N+](=O)[O-])nn(-c2ccc(Cl)cc2)n1O`, the EC50 was > 20 µM (inactive). Regarding `CC(=NNc1ncnc2sc(C)c(C)c12)c1ccccn1`, the EC50 entry was “inactive”.

For the compound `O=C1NC(=O)C2=Cc3ccc(O)cc3OC2(O)N1` (centres undefined), the EC50 result was “inactive”. In the case of `CCCn1c2c(c(=O)n(C)c1=O)C(=O)C(=Cc1ccc(N(C)C)cc1)N2` it was “inactive”. For `CCOc1cc(/C=C(\C#N)c2nc3ncc(Br)cc3[nH]2)ccc1O`, the EC50 entry was “inactive”. In the case of `CC(C)(C)NCC(O)c1ccc(O)c(CO)c1` (centres undefined) it was > 20 µM (inactive).

Consider `COc1ccc(NC(=O)C2C=CCN2)cc1NC(=O)c1ccco1` (centres undefined), for which the EC50 was > 20 µM (inactive).

For the compound `CN1CCc2c(sc(NC(=O)Cc3ccccc3)c2-c2nc3ccccc3s2)C1`, the EC50 is > 20 µM (inactive). In the case of `Nc1nc(Cl)nc2c1ncn2[C@@H]1O[C@H](COP(=O)(O)OP(=O)(O)OP(=O)(O)O)[C@H](O)C1O` (some centres undefined) it was < 0.039 µM (inactive); in that of `COC(=O)C(C)Sc1nc2sc3c(c2c(=O)n1C)CCC3` (centres undefined), > 20 µM (inactive). Then `CCOC(=O)c1c(-c2ccccc2)csc1N=Cc1nc(-c2ccccc2)oc1O`, with > 20 µM (inactive). For the compound `CCOC(=O)C1=C(O)/C(=C\c2ccc(N(C)C)cc2)SC1=Nc1ccc(OC)cc1OC`, the EC50 is > 20 µM (inactive). Then `Cc1cc(C=C2Sc3ccccc3N2C)cc(C)[n+]1-c1ccccc1`, with “inactive”; and `CCc1nn(C(C)C(=O)NC(C)CCc2ccco2)c(=O)c2cc3occc3n12` (centres undefined), with “inactive”; and `O=C(c1snc2c(=O)n(Cc3ccccc3)c(=O)[nH]c12)N1CCSCC1`, with > 20 µM (inactive). For the compound `CN1C(=S)N(c2ccc3c(c2)CCC3)C(=O)/C1=C\c1ccncc1`, the EC50 is > 20 µM (inactive). In the case of `CCCC1CCC(C(=O)Nc2nnc(SCC)s2)CC1` (centres undefined) it was > 20 µM (inactive).
